Source: the NIST ThermoML archive (doi:10.1016/j.jct.2018.08.035)
± gives the expanded uncertainty stated by the source.

Assay: xn = mol fraction of the nth substance listed
Details: 100 kPa, Liquid, Vibrating tube method

CCC(O)CC [3-pentanol] + C[N+](=O)[O-]
Details | mass density [kg/m3]
286.95 K, x1 = 0.629 | 904.586 ± 2
287.05 K, x1 = 0.629 | 904.424 ± 2
287.15 K, x1 = 0.629 | 904.324 ± 2
287.25 K, x1 = 0.629 | 904.302 ± 2
287.35 K, x1 = 0.629 | 904.234 ± 2
287.45 K, x1 = 0.629 | 904.174 ± 2
287.55 K, x1 = 0.629 | 904.105 ± 2
287.66 K, x1 = 0.629 | 904.02 ± 2
287.75 K, x1 = 0.629 | 903.747 ± 2.1
287.86 K, x1 = 0.629 | 903.73 ± 2.1
287.96 K, x1 = 0.629 | 903.653 ± 2.1
288.06 K, x1 = 0.629 | 903.559 ± 2.1
288.16 K, x1 = 0.629 | 903.339 ± 2.2
288.26 K, x1 = 0.629 | 903.249 ± 2.2
288.36 K, x1 = 0.629 | 903.208 ± 2.2
288.46 K, x1 = 0.629 | 903.194 ± 2.2
288.56 K, x1 = 0.629 | 903.023 ± 2.2
288.66 K, x1 = 0.629 | 902.916 ± 2.3
288.75 K, x1 = 0.629 | 902.883 ± 2.3
288.86 K, x1 = 0.629 | 902.656 ± 2.3
288.95 K, x1 = 0.629 | 902.639 ± 2.2
289.06 K, x1 = 0.629 | 902.563 ± 2.2
289.15 K, x1 = 0.246 | 1016.83 ± 2.1
289.15 K, x1 = 0.266 | 1014.93 ± 2.1
289.15 K, x1 = 0.275 | 1013.85 ± 2.1
289.15 K, x1 = 0.3 | 1007.8 ± 2.1
289.15 K, x1 = 0.325 | 1002.84 ± 2.1
289.15 K, x1 = 0.338 | 1001.68 ± 2.1
289.15 K, x1 = 0.363 | 999.874 ± 2.1
289.15 K, x1 = 0.382 | 999.889 ± 2.1
289.15 K, x1 = 0.407 | 999.35 ± 2.1
289.15 K, x1 = 0.486 | 980.562 ± 2.1
289.15 K, x1 = 0.488 | 978.895 ± 2.1
289.15 K, x1 = 0.546 | 955.829 ± 2.2
289.15 K, x1 = 0.573 | 937.786 ± 2.3
289.15 K, x1 = 0.615 | 911.044 ± 2.2
289.15 K, x1 = 0.629 | 902.484 ± 2.2
289.16 K, x1 = 0.587 | 928.424 ± 2.5
289.25 K, x1 = 0.246 | 1015.69 ± 2.1
289.25 K, x1 = 0.266 | 1014.12 ± 2.1
289.25 K, x1 = 0.275 | 1013.22 ± 2.1
289.25 K, x1 = 0.3 | 1007.17 ± 2.1
289.25 K, x1 = 0.325 | 1002.28 ± 2.1
289.25 K, x1 = 0.338 | 1000.75 ± 2.1
289.25 K, x1 = 0.363 | 998.168 ± 2.1
289.25 K, x1 = 0.382 | 998.358 ± 2.1
289.25 K, x1 = 0.407 | 997.887 ± 2.1
289.25 K, x1 = 0.414 | 998.161 ± 2.1
289.25 K, x1 = 0.486 | 979.734 ± 2.1
289.25 K, x1 = 0.488 | 978.223 ± 2.1
289.25 K, x1 = 0.546 | 953.328 ± 2.2
289.25 K, x1 = 0.573 | 937.432 ± 2.4
289.25 K, x1 = 0.587 | 924.098 ± 2.3
289.25 K, x1 = 0.629 | 902.36 ± 2.2
289.26 K, x1 = 0.615 | 910.892 ± 2.1
289.35 K, x1 = 0.3 | 1006.58 ± 2.1
289.35 K, x1 = 0.338 | 999.725 ± 2.1
289.36 K, x1 = 0.246 | 1014.41 ± 2.1
289.36 K, x1 = 0.266 | 1013.24 ± 2.1
289.36 K, x1 = 0.275 | 1012.41 ± 2.1
289.36 K, x1 = 0.325 | 1001.72 ± 2.1
289.36 K, x1 = 0.363 | 996.975 ± 2
289.36 K, x1 = 0.382 | 996.614 ± 2.1
289.36 K, x1 = 0.407 | 996.236 ± 2
289.36 K, x1 = 0.414 | 996.775 ± 2.1
289.36 K, x1 = 0.486 | 978.988 ± 2.1
289.36 K, x1 = 0.488 | 977.267 ± 2.1
289.36 K, x1 = 0.546 | 952.752 ± 2.2
289.36 K, x1 = 0.573 | 936.899 ± 2.4
289.36 K, x1 = 0.587 | 923.859 ± 2.3
289.36 K, x1 = 0.615 | 909.942 ± 2.3
289.36 K, x1 = 0.629 | 902.109 ± 2.2
289.45 K, x1 = 0.246 | 1013.13 ± 2.1
289.45 K, x1 = 0.266 | 1012.22 ± 2.1
289.45 K, x1 = 0.275 | 1011.52 ± 2.1
289.45 K, x1 = 0.3 | 1005.82 ± 2.1
289.45 K, x1 = 0.325 | 1001.04 ± 2.1
289.45 K, x1 = 0.338 | 998.278 ± 2
289.45 K, x1 = 0.363 | 996.016 ± 2
289.45 K, x1 = 0.382 | 994.795 ± 2
289.45 K, x1 = 0.407 | 994.989 ± 2
289.45 K, x1 = 0.414 | 995.114 ± 2.1
289.45 K, x1 = 0.486 | 977.635 ± 2.1
289.45 K, x1 = 0.488 | 975.638 ± 2.1
289.45 K, x1 = 0.546 | 951.819 ± 2.2
289.45 K, x1 = 0.573 | 936.914 ± 2.4
289.45 K, x1 = 0.587 | 923.684 ± 2.5
289.45 K, x1 = 0.629 | 901.973 ± 1.9
289.46 K, x1 = 0.615 | 903.573 ± 2.3
289.55 K, x1 = 0.266 | 1011 ± 2.1
289.55 K, x1 = 0.3 | 1005.09 ± 2.1
289.55 K, x1 = 0.325 | 1000.44 ± 2.1
289.55 K, x1 = 0.407 | 993.27 ± 2.1
289.55 K, x1 = 0.486 | 976.784 ± 2.1
289.55 K, x1 = 0.546 | 950.242 ± 2.2
289.55 K, x1 = 0.573 | 934.004 ± 2.4
289.55 K, x1 = 0.629 | 901.33 ± 2
289.56 K, x1 = 0.246 | 1011.83 ± 2.1
289.56 K, x1 = 0.275 | 1010.74 ± 2.1
289.56 K, x1 = 0.338 | 998.17 ± 2
289.56 K, x1 = 0.363 | 995.361 ± 2
289.56 K, x1 = 0.382 | 993.579 ± 2
289.56 K, x1 = 0.414 | 993.6 ± 2.1
289.56 K, x1 = 0.488 | 974.397 ± 2.1
289.56 K, x1 = 0.587 | 923.551 ± 2.4
289.56 K, x1 = 0.615 | 903.035 ± 2.2
289.65 K, x1 = 0.246 | 1010.76 ± 2.1
289.65 K, x1 = 0.266 | 1009.81 ± 2.1
289.65 K, x1 = 0.275 | 1009.82 ± 2.1
289.65 K, x1 = 0.3 | 1004.38 ± 2.1
289.65 K, x1 = 0.325 | 999.918 ± 2.1
289.65 K, x1 = 0.363 | 994.656 ± 2
289.65 K, x1 = 0.382 | 992.659 ± 2
289.65 K, x1 = 0.407 | 991.642 ± 2.1
289.65 K, x1 = 0.414 | 991.992 ± 2.1
289.65 K, x1 = 0.486 | 975.844 ± 2.1
289.65 K, x1 = 0.488 | 973.516 ± 2.1
289.65 K, x1 = 0.546 | 949.056 ± 2.2
289.65 K, x1 = 0.573 | 932.207 ± 2.3
289.65 K, x1 = 0.587 | 923.409 ± 2.4
289.65 K, x1 = 0.615 | 903.013 ± 2.3
289.65 K, x1 = 0.629 | 896.019 ± 2.4
289.66 K, x1 = 0.338 | 997.588 ± 2
289.75 K, x1 = 0.246 | 1009.91 ± 2.1
289.75 K, x1 = 0.266 | 1008.57 ± 2.1
289.75 K, x1 = 0.275 | 1008.78 ± 2.1
289.75 K, x1 = 0.3 | 1003.47 ± 2.1
289.75 K, x1 = 0.325 | 999.093 ± 2.1
289.75 K, x1 = 0.363 | 994.035 ± 2
289.75 K, x1 = 0.382 | 991.551 ± 2
289.75 K, x1 = 0.407 | 989.735 ± 2
289.75 K, x1 = 0.414 | 990.174 ± 2.1
289.75 K, x1 = 0.486 | 974.653 ± 2.1
289.75 K, x1 = 0.488 | 972.561 ± 2.1
289.75 K, x1 = 0.546 | 947.686 ± 2.2
289.75 K, x1 = 0.573 | 929.383 ± 2.3
289.75 K, x1 = 0.587 | 924.024 ± 2.4
289.75 K, x1 = 0.615 | 902.898 ± 2.4
289.76 K, x1 = 0.338 | 996.84 ± 2
289.85 K, x1 = 0.266 | 1007.2 ± 2.1
289.85 K, x1 = 0.275 | 1007.7 ± 2.1
289.85 K, x1 = 0.3 | 1002.58 ± 2.1
289.85 K, x1 = 0.325 | 998.305 ± 2.1
289.85 K, x1 = 0.363 | 993.362 ± 2
289.85 K, x1 = 0.382 | 990.377 ± 2
289.85 K, x1 = 0.407 | 988.132 ± 2
289.85 K, x1 = 0.414 | 988.452 ± 2
289.85 K, x1 = 0.486 | 973.161 ± 2.1
289.85 K, x1 = 0.488 | 971.375 ± 2.1
289.85 K, x1 = 0.546 | 946.847 ± 2.2
289.85 K, x1 = 0.573 | 928.807 ± 2.4
289.85 K, x1 = 0.587 | 917.506 ± 2.4
289.86 K, x1 = 0.246 | 1009.43 ± 2.1
289.86 K, x1 = 0.338 | 996.331 ± 2
289.86 K, x1 = 0.615 | 902.789 ± 2.1
289.95 K, x1 = 0.266 | 1005.77 ± 2.1
289.95 K, x1 = 0.275 | 1006.41 ± 2.1
